Measured values from patent US9493441B2, “Acyclic cyanoethylpyrazoles as janus kinase inhibitors” (Merck Sharp & Dohme Corp., priority 2011, dated 2016).
Read-outs that look alike come from different tables or passages of the source.

Columns and labels:
JAK1 = JAK1 (Homo sapiens (Human), UniProt P23458); assay: Jak biochemical HTRF assay, JAK1
JAK2 = JAK2 (Homo sapiens (Human), UniProt O60674); assay: Jak biochemical HTRF assay, JAK2
[1] = JAK1 IC50 (nM), recombinant GST-tagged catalytic domain, [ATP] 31.8 μM
[2] = JAK2 IC50 (nM), recombinant GST-tagged catalytic domain, [ATP] […]

JAK2, sequence (O60674 849-1124): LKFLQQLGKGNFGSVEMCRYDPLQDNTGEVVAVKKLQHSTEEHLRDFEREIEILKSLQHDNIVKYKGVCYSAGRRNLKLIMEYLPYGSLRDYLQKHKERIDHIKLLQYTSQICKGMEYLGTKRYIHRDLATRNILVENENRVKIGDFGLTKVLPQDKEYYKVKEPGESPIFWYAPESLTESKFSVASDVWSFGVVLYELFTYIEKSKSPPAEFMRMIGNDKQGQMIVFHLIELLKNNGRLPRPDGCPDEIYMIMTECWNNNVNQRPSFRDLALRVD
JAK1, sequence (P23458 875-1153): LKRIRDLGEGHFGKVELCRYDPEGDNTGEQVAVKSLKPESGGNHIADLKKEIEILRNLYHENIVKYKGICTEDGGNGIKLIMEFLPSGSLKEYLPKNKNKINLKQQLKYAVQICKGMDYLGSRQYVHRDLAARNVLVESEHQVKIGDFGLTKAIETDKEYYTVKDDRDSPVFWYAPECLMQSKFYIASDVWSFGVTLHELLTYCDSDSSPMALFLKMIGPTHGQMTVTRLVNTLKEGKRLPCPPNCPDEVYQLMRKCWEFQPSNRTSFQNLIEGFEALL

SMILES | IC50 (JAK1; [1]) [nM] | IC50 (JAK2; [2]) [nM] | IC50 (JAK1; read-out: JAK1 IC50, recombinant GST-tagged catalytic domain, [ATP] 31.8 μM) [nM] | IC50 (JAK2; read-out: JAK2 IC50, recombinant GST-tagged catalytic domain, [ATP] […]) [nM]
N#CCC(C1CC1)n1cc(C(N)=O)c(Nc2ccc(F)cc2)n1 (stereo not drawn) [Example 4-11, l-(2-cyano-1-cyclopropylethyl)-3-[(4-fluorophenyl)amino]-1H-pyrazole-4-carboxamide] | 9 | 66 | – | –
N#CC[C@@H](C1CCN(C(=O)OC2COC2)CC1)n1cc(C(N)=O)c(Nc2ccc(F)cc2)n1 [Example 11-4, oxetan-3-yl 4-[(1S)-1-{4-carbamoyl-3-[(4-fluorophenyl)amino]-1H-pyrazol-1-yl}-2-cyanoethyl]piperidine-1-carboxylate] | 52 | 861 | – | –
CCOC(=O)N1CCC([C@H](CC#N)n2cc(C(N)=O)c(Nc3ccc(F)cc3)n2)CC1 (single isomer, unassigned) [Example 12-4, ethyl 4-[(1S or 1R)-1-{4-carbamoyl-3-[(4-fluorophenyl)amino]-1H-pyrazol-1-yl}-2-cyanoethyl]piperidine-1-carboxylate] | 44 | 1050 | – | –
Cc1noc(-c2ccc(Nc3nn(C(CC#N)C4CC4)cc3C(N)=O)cc2)n1 (stereo not drawn) [Example 4-36, 1-(2-cyano-1-cyclopropylethyl)-3-{[4-(3-methyl-1,2,4-oxadiazol-5-yl)phenyl]amino}-1H-pyrazole-4-carboxamide] | 5 | 39 | – | –
C[C@@H](C#N)[C@H](C)n1cc(C(N)=O)c(Nc2ccccc2)n1 (mixture of isomers) [Example 1-23, 1-((2S, 3R and 2R, 3S)-3-cyclobutan-2-yl)-3-(phenylamino)-1H-pyrazole-4-carboxamide] | 123 | 413 | – | –
CC(C)(C)OC(=O)N1CCC(C(CC#N)n2cc(C(N)=O)c(Nc3ccccc3)n2)CC1 (stereo not drawn) [Example 1-2, tert-butyl 4-{1-[4-carbamoyl-3-(phenylamino)-1H-pyrazol-1-yl]-2-cyanoethyl}piperidine-1-carboxylate] | 7 | 228 | – | –
N#CCC(C1CCCOC1)n1cc(C(N)=O)c(Nc2ccccc2)n1 (stereo not drawn) [Example 1-15, 1-[2-cyano-1-(tetrahydro-2H-pyran-3-yl)ethyl]-3-(phenylamino)-1H-pyrazole-4-carboxamide] | 501 | 1480 | – | –
N#CCCn1cc(C(N)=O)c(Nc2ccccc2)n1 [Example 1-4, 1-(2-cyanoethyl)-3-(phenylamino)-1H-pyrazole-4-carboxamide] | 348 | 1190 | – | –
N#CCC(C1CC1)n1cc(C(N)=O)c(Nc2ccc3c(c2)CCC3=O)n1 (stereo not drawn) [Example 4-19, 1-(2-cyano-1-cyclopropylethyl)-3-[(1-oxo-2,3-dihydro-1H-inden-5-yl)amino]-1H-pyrazole-4-carboxamide] | 2 | 17 | – | –
N#CCC(C1CCOCC1)n1cc(C(N)=O)c(Nc2ccccc2)n1 (stereo not drawn) [Example 1-9, 1-[2-cyano-1-(tetrahydro-2H-pyran-4-yl)ethyl]-3-(phenylamino)-1H-pyrazole-4-carboxamide] | 241 | 1480 | – | –
N#CCC(C1CCCC1)n1cc(C(N)=O)c(Nc2ccccc2)n1 (single isomer, unassigned) [Example 16-3, 1-[(1S or 1R)-2-cyano-1-cyclopentylethyl]-3-(phenylamino)-1H-pyrazole-4-carboxamide] | 47 | 742 | – | –
CC(C)(C)OC(=O)N1CCC(C(CC#N)n2cc(C(N)=O)c(Nc3ccc(F)cc3)n2)C1 (stereo not drawn) [Example 1-3, tert-butyl 3-(1-{4-carbamoyl-3-[(4-fluorophenyl)amino]-1H-pyrazol-1-yl}-2-cyanoethyl)pyrrolidine-1-carboxylate] | 267 | 1480 | – | –
N#CCC(C1CC1)n1cc(C(N)=O)c(Nc2ccc(S(=O)(=O)C(F)(F)F)cc2)n1 (stereo not drawn) [Example 4-28, 1-(2-cyano-1-cyclopropylethyl)-3-({4-[(trifluoromethyl)sulfonyl]phenyl}amino)-1H-pyrazole-4-carboxamide] | 11 | 75 | – | –
N#CCc1ccc(Nc2nn(C(CC#N)C3CC3)cc2C(N)=O)cc1 (stereo not drawn) [Example 4-8, 1-(2-cyano-1-cyclopropylethyl)-3-{[4-(cyanomethyl)phenyl]amino}-1H-pyrazole-4-carboxamide] | 5 | 24 | – | –
N#CCC(C1CC1)n1cc(C(N)=O)c(Nc2ccc3ccncc3c2)n1 (stereo not drawn) [Example 4-15, 1-(2-cyano-1-cyclopropylethyl)-3-(isoquinolin-7-ylamino)-1H-pyrazole-4-carboxamide] | 9 | 39 | – | –
CC(C)(C)COC(=O)N1CCC([C@H](CC#N)n2cc(C(N)=O)c(Nc3ccc(F)cc3)n2)CC1 (single isomer, unassigned) [Example 12-2, 2,2-dimethylpropyl 4-[(1S or 1R)-1-{4-carbamoyl-3-[(4-fluorophenyl)amino]-1H-pyrazol-1-yl}-2-cyanoethyl]piperidine-1-carboxylate] | 718 | 1500 | – | –
N#CCC(C1CC1)n1cc(C(N)=O)c(Nc2ccc3c(c2)C=CS3(=O)=O)n1 (stereo not drawn) [Example 4-35, 1-(2-cyano-1-cyclopropylethyl)-3-[(1,1-dioxido-1-benzothiophen-5-yl)amino]-1H-pyrazole-4-carboxamide] | 2 | 34 | – | –
CC(C)C(CC#N)n1cc(C(N)=O)c(Nc2ccccc2)n1 (stereo not drawn) [Example 1-11, 1-[1-(cyanomethyl)-2-methylpropyl]-3-(phenylamino)-1H-pyrazole-4-carboxamide] | 64 | 641 | – | –
N#CCC(C1CC1)n1cc(C(N)=O)c(Nc2ccccc2F)n1 (stereo not drawn) [Example 6-2, 1-(2-cyano-1-cyclopropylethyl)-3-[(2-fluorophenyl)amino]-1H-pyrazole-4-carboxamide] | – | – | 360 | 1480
N#CCC(C1CC1)n1cc(C(N)=O)c(Nc2ccc(S(=O)(=O)C(F)F)cc2)n1 (stereo not drawn) [Example 4-29, 1-(2-cyano-1-cyclopropylethyl)-3-({4-[(difluoromethyl)sulfonyl]phenyl}amino)-1H-pyrazole-4-carboxamide] | 2 | 13 | – | –
CN1Cc2cc(Nc3nn(C(CC#N)C4CC4)cc3C(N)=O)ccc2C1=O (stereo not drawn) [Example 4-33, 1-(2-cyano-1-cyclopropylethyl)-3-[(2-methyl-1-oxo-2,3-dihydro-1H-isoindol-5-yl)amino]-1H-pyrazole-4-carboxamide] | 1 | 23 | – | –
CC(C)(C)OC(=O)CN1Cc2cc(Nc3nn(C(CC#N)C4CC4)cc3C(N)=O)ccc2C1=O (stereo not drawn) [Example 4-34, tert-butyl (5-{[4-carbamoyl-1-(2-cyano-1-cyclopropylethyl)-1H-pyrazol-3-yl]amino}-1-oxo-1,3-dihydro-2H-isoindol-2-yl)acetate] | 2 | 20 | – | –
CC(OC(=O)N1CCC([C@H](CC#N)n2cc(C(N)=O)c(Nc3ccc(F)cc3)n2)CC1)C(F)(F)F (stereo partly drawn) [Example 11-11, 2,2,2-trifluoro-1-methylethyl 4-[(1S)-1-{4-carbamoyl-3-[(4-fluorophenyl)amino]-1H-pyrazol-1-yl}-2-cyanoethyl]piperidine-1-carboxylate] | 46 | 1040 | – | –
N#CCC(n1cc(C(N)=O)c(Nc2ccccc2)n1)C(F)(F)F (stereo not drawn) [Example 2, 1-(3-Cyano-1,1,1-trifluoropropan-2-yl)-3-(phenylamino)-1H-pyrazole-4-carboxamide] | 124 | 339 | – | –
